Measured values as given in the supplement of paper PMC8149375.
One block for each compound: values may come before it.

Key:
Settings in all cases: treatment: drug alone; 5 days
[1] = system: 769-P; assay: GI50, drug alone; higher = less potent
Description: (§1)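 Primary HTS: 8 RCC cell lines treated with 8 doses (up to 10 uM) of each library drug alone for 5 days; viability read by CellTiter-Glo and normalised to DMSO. GI50 was fitted with XLfit (4-parameter), AUC is the area under the dose-response curve, and minimum viability is the lowest fraction of DMSO viability across doses.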

[2] = system: 786-O; assay: GI50, drug alone; higher = less potent
Description: as §1

[3] = system: A498; assay: GI50, drug alone; higher = less potent
Description: as §1

[4] = system: ACHN; assay: GI50, drug alone; higher = less potent
Description: as §1

[5] = system: CAKI-1; assay: GI50, drug alone; higher = less potent
Description: as §1

[6] = system: SN12C; assay: GI50, drug alone; higher = less potent
Description: as §1

[7] = system: TK-10; assay: GI50, drug alone; higher = less potent
Description: as §1

[8] = system: UO-31; assay: GI50, drug alone; higher = less potent
Description: as §1

[9] = system: 769-P; assay: minimum viability across doses, drug alone, relative to DMSO (fraction); higher = less growth inhibition
Description: as §1

[10] = system: 786-O; assay: as above
Description: as §1

[11] = system: A498; assay: as above
Description: as §1

[12] = system: ACHN; assay: as above
Description: as §1

[13] = system: CAKI-1; assay: as above
Description: as §1

[14] = system: SN12C; assay: as above
Description: as §1

[15] = system: TK-10; assay: as above
Description: as §1

[16] = system: UO-31; assay: as above
Description: as §1

[17] = system: 769-P; assay: AUC of dose-response viability curve, drug alone (arbitrary (AUC of normalised viability)); higher = less growth inhibition
Description: as §1

[18] = system: 786-O; assay: as above
Description: as §1

[19] = system: A498; assay: as above
Description: as §1

[20] = system: ACHN; assay: as above
Description: as §1

[21] = system: CAKI-1; assay: as above
Description: as §1

[22] = system: SN12C; assay: as above
Description: as §1

[23] = system: TK-10; assay: as above
Description: as §1

[24] = system: UO-31; assay: as above
Description: as §1

SMILES: COc1cc(N2CCC(N3CCN(C)CC3)CC2)ccc1Nc1ncc(Cl)c(Nc2ccccc2S(=O)(=O)C(C)C)n1 [TAE684 (NVP-TAE684)]
GI50, drug alone [1]: > 10 µM | GI50, drug alone [2]: < 0.003 µM | GI50, drug alone [3]: 1.43 µM | GI50, drug alone [4]: 1.84 µM | GI50, drug alone [5]: 2.33 µM | GI50, drug alone [6]: 2.62 µM | GI50, drug alone [7]: 3.59 µM | GI50, drug alone [8]: > 10 µM | minimum viability across doses [9]: 0.722 | minimum viability across doses [10]: 0.124 | minimum viability across doses [11]: 0.399 | minimum viability across doses [12]: 0.237 | minimum viability across doses [13]: 0.255 | minimum viability across doses [14]: 0.182 | minimum viability across doses [15]: 0.356 | minimum viability across doses [16]: 0.927 | AUC of dose-response viability curve [17]: 3.21 | AUC of dose-response viability curve [18]: 1.87 | AUC of dose-response viability curve [19]: 3.29 | AUC of dose-response viability curve [20]: 2.65 | AUC of dose-response viability curve [21]: 2.9 | AUC of dose-response viability curve [22]: 2.74 | AUC of dose-response viability curve [23]: 2.82 | AUC of dose-response viability curve [24]: 4.34

SMILES: CC(C)(O)CC(=O)NCCn1ccc2ncnc(Nc3ccc(Oc4cccc(C(F)(F)F)c4)c(Cl)c3)c21 [TAK-285]
GI50, drug alone [1]: 6.69 µM | GI50, drug alone [2]: > 10 µM | GI50, drug alone [3]: > 10 µM | GI50, drug alone [4]: 4.12 µM | GI50, drug alone [5]: > 10 µM | GI50, drug alone [6]: > 10 µM | GI50, drug alone [7]: 3.95 µM | GI50, drug alone [8]: > 10 µM | minimum viability across doses [9]: 0.407 | minimum viability across doses [10]: 0.524 | minimum viability across doses [11]: 0.852 | minimum viability across doses [12]: 0.421 | minimum viability across doses [13]: 0.584 | minimum viability across doses [14]: 0.81 | minimum viability across doses [15]: 0.412 | minimum viability across doses [16]: 1.21 | AUC of dose-response viability curve [17]: 3.04 | AUC of dose-response viability curve [18]: 2.42 | AUC of dose-response viability curve [19]: 3.69 | AUC of dose-response viability curve [20]: 2.78 | AUC of dose-response viability curve [21]: 3.14 | AUC of dose-response viability curve [22]: 3.17 | AUC of dose-response viability curve [23]: 2.5 | AUC of dose-response viability curve [24]: 4.9

SMILES: Cn1c(=O)c(F)c(Nc2ccc(I)cc2F)c2c(=O)n(C[C@@H](O)CO)cnc21 [TAK-733]
GI50, drug alone [1]: 0.933 µM | GI50, drug alone [2]: 0.167 µM | GI50, drug alone [3]: > 10 µM | GI50, drug alone [4]: 0.209 µM | GI50, drug alone [5]: 0.095 µM | GI50, drug alone [6]: 0.758 µM | GI50, drug alone [7]: 0.149 µM | GI50, drug alone [8]: 2.45 µM | minimum viability across doses [9]: 0.293 | minimum viability across doses [10]: 0.396 | minimum viability across doses [11]: 0.784 | minimum viability across doses [12]: 0.291 | minimum viability across doses [13]: 0.17 | minimum viability across doses [14]: 0.26 | minimum viability across doses [15]: 0.242 | minimum viability across doses [16]: 0.0861 | AUC of dose-response viability curve [17]: 2.33 | AUC of dose-response viability curve [18]: 2.08 | AUC of dose-response viability curve [19]: 3.42 | AUC of dose-response viability curve [20]: 1.8 | AUC of dose-response viability curve [21]: 1.57 | AUC of dose-response viability curve [22]: 2.08 | AUC of dose-response viability curve [23]: 1.72 | AUC of dose-response viability curve [24]: 3.49

SMILES: CCS(=O)(=O)c1cccc(-c2cc(C(=O)NC3CCN(C)CC3)c(C)c3[nH]c4ncc(C)cc4c23)c1 [TAK-901]
GI50, drug alone [1]: > 10 µM | GI50, drug alone [2]: 0.381 µM | GI50, drug alone [3]: 0.956 µM | GI50, drug alone [4]: 0.708 µM | GI50, drug alone [5]: 1.32 µM | GI50, drug alone [6]: 0.383 µM | GI50, drug alone [7]: 0.836 µM | GI50, drug alone [8]: 8.94 µM | minimum viability across doses [9]: 0.521 | minimum viability across doses [10]: 0.00628 | minimum viability across doses [11]: 0.0141 | minimum viability across doses [12]: 0.0394 | minimum viability across doses [13]: 0.0277 | minimum viability across doses [14]: 0.00544 | minimum viability across doses [15]: 0.0432 | minimum viability across doses [16]: 0.21 | AUC of dose-response viability curve [17]: 3.25 | AUC of dose-response viability curve [18]: 1.81 | AUC of dose-response viability curve [19]: 3.09 | AUC of dose-response viability curve [20]: 2.33 | AUC of dose-response viability curve [21]: 2.65 | AUC of dose-response viability curve [22]: 1.98 | AUC of dose-response viability curve [23]: 2.27 | AUC of dose-response viability curve [24]: 4.08

Now from value to compound, other results behind:

GI50, drug alone [2]: > 10 µM | GI50, drug alone [4]: > 10 µM
SMILES: Nc1nc(N)c2nc(-c3cccc(O)c3)c(-c3cccc(O)c3)nc2n1 [TG100-115]
GI50, drug alone [1]: > 10 µM | GI50, drug alone [3]: > 10 µM | GI50, drug alone [5]: > 10 µM | GI50, drug alone [6]: > 10 µM | GI50, drug alone [7]: > 10 µM | GI50, drug alone [8]: > 10 µM | minimum viability across doses [9]: 0.912 | minimum viability across doses [10]: 0.873 | minimum viability across doses [11]: 0.862 | minimum viability across doses [12]: 0.685 | minimum viability across doses [13]: 0.567 | minimum viability across doses [14]: 0.804 | minimum viability across doses [15]: 0.871 | minimum viability across doses [16]: 1.2 | AUC of dose-response viability curve [17]: 3.5 | AUC of dose-response viability curve [18]: 3.66 | AUC of dose-response viability curve [19]: 4.15 | AUC of dose-response viability curve [20]: 3.33 | AUC of dose-response viability curve [21]: 2.42 | AUC of dose-response viability curve [22]: 3.31 | AUC of dose-response viability curve [23]: 3.25 | AUC of dose-response viability curve [24]: 5.18

GI50, drug alone [2]: > 10 µM | GI50, drug alone [4]: > 10 µM
SMILES: Cc1cc(C(C)Nc2ccccc2)c2nc(N3CCOCC3)cc(=O)n2c1 (stereo unspecified) [TGX-221]
GI50, drug alone [1]: > 10 µM | GI50, drug alone [3]: > 10 µM | GI50, drug alone [5]: 8.6 µM | GI50, drug alone [6]: > 10 µM | GI50, drug alone [7]: > 10 µM | GI50, drug alone [8]: > 10 µM | minimum viability across doses [9]: 0.749 | minimum viability across doses [10]: 0.622 | minimum viability across doses [11]: 1.04 | minimum viability across doses [12]: 0.736 | minimum viability across doses [13]: 0.49 | minimum viability across doses [14]: 0.847 | minimum viability across doses [15]: 0.707 | minimum viability across doses [16]: 1.15 | AUC of dose-response viability curve [17]: 3.18 | AUC of dose-response viability curve [18]: 2.6 | AUC of dose-response viability curve [19]: 4.23 | AUC of dose-response viability curve [20]: 3.15 | AUC of dose-response viability curve [21]: 2.84 | AUC of dose-response viability curve [22]: 3.34 | AUC of dose-response viability curve [23]: 3.06 | AUC of dose-response viability curve [24]: 5.04

GI50, drug alone [2]: 4.89 µM | GI50, drug alone [4]: 1.29 µM
SMILES: NC(=O)Nc1sc(-c2ccc(F)cc2)cc1C(N)=O [TPCA-1]
GI50, drug alone [1]: > 10 µM | GI50, drug alone [3]: > 10 µM | GI50, drug alone [5]: 1.45 µM | GI50, drug alone [6]: > 10 µM | GI50, drug alone [7]: 1.78 µM | GI50, drug alone [8]: > 10 µM | minimum viability across doses [9]: 0.355 | minimum viability across doses [10]: 0.189 | minimum viability across doses [11]: 1.1 | minimum viability across doses [12]: 0.201 | minimum viability across doses [13]: 0.117 | minimum viability across doses [14]: 0.544 | minimum viability across doses [15]: 0.178 | minimum viability across doses [16]: 0.627 | AUC of dose-response viability curve [17]: 3.16 | AUC of dose-response viability curve [18]: 2.54 | AUC of dose-response viability curve [19]: 4.38 | AUC of dose-response viability curve [20]: 2.57 | AUC of dose-response viability curve [21]: 2.67 | AUC of dose-response viability curve [22]: 3.24 | AUC of dose-response viability curve [23]: 2.53 | AUC of dose-response viability curve [24]: 3.64

GI50, drug alone [2]: > 10 µM | GI50, drug alone [4]: > 10 µM
SMILES: Cc1[nH]c(/C=C2\C(=O)Nc3ccccc32)c(C)c1CCC(=O)O [TSU-68]
GI50, drug alone [1]: > 10 µM | GI50, drug alone [3]: > 10 µM | GI50, drug alone [5]: > 10 µM | GI50, drug alone [6]: > 10 µM | GI50, drug alone [7]: > 10 µM | GI50, drug alone [8]: > 10 µM | minimum viability across doses [9]: 0.887 | minimum viability across doses [10]: 0.786 | minimum viability across doses [11]: 0.884 | minimum viability across doses [12]: 0.752 | minimum viability across doses [13]: 0.903 | minimum viability across doses [14]: 0.882 | minimum viability across doses [15]: 0.855 | minimum viability across doses [16]: 0.879 | AUC of dose-response viability curve [17]: 3.3 | AUC of dose-response viability curve [18]: 3.1 | AUC of dose-response viability curve [19]: 3.71 | AUC of dose-response viability curve [20]: 3.12 | AUC of dose-response viability curve [21]: 3.34 | AUC of dose-response viability curve [22]: 3.41 | AUC of dose-response viability curve [23]: 3.26 | AUC of dose-response viability curve [24]: 2.36

GI50, drug alone [2]: 0.133 µM | GI50, drug alone [4]: 1.46 µM
SMILES: CC(C)c1ccccc1Cc1cc(C(=O)Nc2ccc(S(=O)(=O)c3ccccc3C(C)(C)C)cc2)c(O)c(O)c1O [TW-37]
GI50, drug alone [1]: 2.8 µM | GI50, drug alone [3]: > 10 µM | GI50, drug alone [5]: 0.926 µM | GI50, drug alone [6]: > 10 µM | GI50, drug alone [7]: 1.73 µM | GI50, drug alone [8]: 8.46 µM | minimum viability across doses [9]: 0.0442 | minimum viability across doses [10]: 0.0508 | minimum viability across doses [11]: 0.946 | minimum viability across doses [12]: 0.0989 | minimum viability across doses [13]: 0.0857 | minimum viability across doses [14]: 0.499 | minimum viability across doses [15]: 0.296 | minimum viability across doses [16]: 0.0881 | AUC of dose-response viability curve [17]: 3.12 | AUC of dose-response viability curve [18]: 1.54 | AUC of dose-response viability curve [19]: 4 | AUC of dose-response viability curve [20]: 2.48 | AUC of dose-response viability curve [21]: 2.77 | AUC of dose-response viability curve [22]: 2.97 | AUC of dose-response viability curve [23]: 2.25 | AUC of dose-response viability curve [24]: 4.07
